Reference: the supplement of paper PMC10307832

compound: CC1(C)CCC(CN2CCN(c3ccc(C(=O)NS(=O)(=O)c4ccc(NCC5CCOCC5)c([N+](=O)[O-])c4)c(Oc4cnc5[nH]ccc5c4)c3)CC2)=C(c2ccc(Cl)cc2)C1 [Venetoclax] + CC1(C)CCC(c2ccc(Cl)cc2)=C(CN2CCN(c3ccc(C(=O)NS(=O)(=O)c4ccc(N[C@H](CCN5CCOCC5)CSc5ccccc5)c(S(=O)(=O)C(F)(F)F)c4)cc3)CC2)C1 [Navitoclax] (partner 0.5 µM); test: relative viability (nuclei count vs DMSO), 5 days (fraction); higher = more cells survive; settings: first compound 1 µM
Summary of the method: (§1)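 Lung cancer cell lines in 1536-well plates got either a single drug or a fixed anchor-drug dose together with five library-drug doses (not always all listed) in √10 steps, by pin tool, on the day after seeding. Nuclei were counted after 5 days, and relative viability is the treated-to-vehicle ratio of nuclei counts. Values are medians of duplicate plates.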

Row | Cell Line | relative viability
1 | NCI-H2085 | 1.06
2 | A-427 | 1.01
3 | NCI-H520 | 0.962
4 | NCI-H838 | 1.11
5 | NCI-H596 | 0.919
6 | NCI-H3122 | 1.01
7 | NCI-H1395 | 1.55
8 | 201T | 1.21
9 | NCI-H1993 | 0.891
10 | HOP-62 | 1
11 | NCI-H1355 | 0.897
12 | NCI-H2405 | 0.91
13 | NCI-H1437 | 0.977
14 | CAL-12T | 1.1
15 | H3255 | 0.498
16 | NCI-H2347 | 0.819
17 | NCI-H1975 | 1.11
18 | NCI-H441 | 0.47
19 | NCI-H1650 | 0.968
20 | NCI-H1915 | 0.779
21 | NCI-H2087 | 0.974
22 | HCC-366 | 0.993
23 | NCI-H1793 | 0.382
24 | RERF-LC-KJ | 0.89
25 | EKVX | 0.854

compound: Cn1cnc2c(F)c(Nc3ccc(Br)cc3Cl)c(C(=O)NOCCO)cc21 [Selumetinib] + CC1(C)CCC(c2ccc(Cl)cc2)=C(CN2CCN(c3ccc(C(=O)NS(=O)(=O)c4ccc(N[C@H](CCN5CCOCC5)CSc5ccccc5)c(S(=O)(=O)C(F)(F)F)c4)cc3)CC2)C1 [Navitoclax] (partner 0.5 µM); test: as above; settings: first compound 0.02 µM
Summary of the method: as §1

Row | Cell Line | relative viability
26 | LC-2-ad | 0.4
27 | LXF-289 | 0.913
28 | ChaGo-K-1 | 0.878
29 | NCI-H2170 | 0.581
30 | NCI-H322M | 1.14
31 | HCC-78 | 0.77
32 | BEN | 0.0655
33 | HCC-15 | 0.507
34 | HCC-827 | 0.978
35 | NCI-H460 | 1.18
36 | LU99A | 0.856
37 | NCI-H2085 | 1.09
38 | A-427 | 1.02
39 | NCI-H520 | 1.08
40 | NCI-H838 | 1.01
41 | NCI-H596 | 0.906
42 | NCI-H3122 | 0.937
43 | NCI-H1395 | 1.08

Row | Cell Line | relative viability
44 | 201T | 1.17
45 | NCI-H1993 | 0.801
46 | HOP-62 | 1.01
47 | NCI-H1355 | 0.893
48 | NCI-H2405 | 0.771
49 | NCI-H1437 | 1.07
50 | CAL-12T | 1.28
51 | H3255 | 0.428
52 | NCI-H2347 | 0.752
53 | NCI-H1975 | 1.23
54 | NCI-H441 | 0.959
55 | NCI-H1650 | 1
56 | NCI-H1915 | 0.714
57 | NCI-H2087 | 0.838
58 | HCC-366 | 1.11
59 | NCI-H1793 | 0.478
60 | RERF-LC-KJ | 0.726
61 | EKVX | 0.689

same assay, conditions: first compound 0.06325 µM

Row | Cell Line | relative viability
62 | LC-2-ad | 0.359
63 | LXF-289 | 0.894
64 | ChaGo-K-1 | 0.956
65 | NCI-H2170 | 0.561
66 | NCI-H322M | 0.795
67 | HCC-78 | 0.758
68 | BEN | 0.0564
69 | HCC-15 | 0.397
70 | HCC-827 | 1.04
71 | NCI-H460 | 0.916
72 | LU99A | 0.816
73 | NCI-H2085 | 1.07
74 | A-427 | 0.868
75 | NCI-H520 | 1.1
76 | NCI-H838 | 0.965
77 | NCI-H596 | 0.845
78 | NCI-H3122 | 0.852
79 | NCI-H1395 | 1.13

Row | Cell Line | relative viability
80 | 201T | 1.14
81 | NCI-H1993 | 0.79
82 | HOP-62 | 0.997
83 | NCI-H1355 | 0.932
84 | NCI-H2405 | 0.636
85 | NCI-H1437 | 0.856
86 | CAL-12T | 1.36
87 | H3255 | 0.487
88 | NCI-H2347 | 0.403
89 | NCI-H1975 | 1.22
90 | NCI-H441 | 0.574
91 | NCI-H1650 | 0.893
92 | NCI-H1915 | 0.792
93 | NCI-H2087 | 0.585
94 | HCC-366 | 0.954
95 | NCI-H1793 | 0.304
96 | RERF-LC-KJ | 0.819
97 | EKVX | 0.82

same assay, conditions: first compound 0.2 µM

Row | Cell Line | relative viability
98 | LC-2-ad | 0.442
99 | LXF-289 | 0.754
100 | ChaGo-K-1 | 0.911
101 | NCI-H2170 | 0.514
102 | NCI-H322M | 1.05
103 | HCC-78 | 0.69
104 | BEN | 0.0657
105 | HCC-15 | 0.32
106 | HCC-827 | 1.03
107 | NCI-H460 | 0.86
108 | LU99A | 0.928
109 | NCI-H2085 | 0.913
110 | A-427 | 0.76
111 | NCI-H520 | 1.12
112 | NCI-H838 | 0.963
113 | NCI-H596 | 0.677
114 | NCI-H3122 | 0.908
115 | NCI-H1395 | 1.22

Row | Cell Line | relative viability
116 | 201T | 1.17
117 | NCI-H1993 | 0.749
118 | HOP-62 | 0.929
119 | NCI-H1355 | 0.776
120 | NCI-H2405 | 0.525
121 | NCI-H1437 | 0.75
122 | CAL-12T | 0.986
123 | H3255 | 0.342
124 | NCI-H2347 | 0.271
125 | NCI-H1975 | 1.01
126 | NCI-H441 | 0.839
127 | NCI-H1650 | 0.904
128 | NCI-H1915 | 0.795
129 | NCI-H2087 | 0.457
130 | HCC-366 | 0.917
131 | NCI-H1793 | 0.311
132 | RERF-LC-KJ | 0.939
133 | EKVX | 0.559

same assay, conditions: first compound 0.6325 µM

Row | Cell Line | relative viability
134 | LC-2-ad | 0.46
135 | LXF-289 | 0.754
136 | ChaGo-K-1 | 1.23
137 | NCI-H2170 | 0.464
138 | NCI-H322M | 1.04
139 | HCC-78 | 0.738
140 | BEN | 0.0674
141 | HCC-15 | 0.199
142 | HCC-827 | 1.04
143 | NCI-H460 | 0.578
144 | LU99A | 0.563
145 | NCI-H2085 | 0.795
146 | A-427 | 0.68
147 | NCI-H520 | 1.07
148 | NCI-H838 | 0.88
149 | NCI-H596 | 0.415
150 | NCI-H3122 | 0.808
151 | NCI-H1395 | 1.28
152 | 201T | 1.15
